How the values were obtained:
Hepatitis C virus = assay: Antiviral activity against HCV infected in human HBI10A cells assessed as inhibition of viral-NS3 expression by ELISA; type: functional, organism-based, Hepacivirus hominis
[1] = Selectivity index, ratio of CC50 for human HBI10A cells to IC50 for HCV; type: functional
[2] = Cytotoxicity against human HBI10A cells after 20 hrs by MTS assay; type: cell-based

Structure (SMILES)	IC50 (Hepatitis C virus)	Ratio CC50/IC50 [1]	CC50 at 20 h [2]
CCOC(=O)N1[C@H](CO)C[C@@H](O)[C@@H]1n1cc(F)c(=O)[nH]c1=O	4.8 µM	>=208	> 1000 µM
CC(C)(C)OC(=O)N1[C@H](CO)C[C@@H](O)[C@@H]1n1cc(F)c(=O)[nH]c1=O	0.00035 µM	–	623 µM
Cc1cn([C@H]2[C@H](O)C[C@@H](CO)N2C(=O)OC(C)(C)C)c(=O)[nH]c1=O	0.018 µM	–	> 1000 µM
CCOC(=O)N1[C@H](CO)C[C@@H](O)[C@H]1n1cc(F)c(=O)[nH]c1=O	> 1000 µM	–	200 µM
CC(C)(C)OC(=O)N1[C@H](CO)C[C@@H](O)[C@@H]1n1ccc(=O)[nH]c1=O	40.6 µM	–	> 1000 µM
CC(C)(C)OC(=O)N1[C@H](CO)C[C@@H](O)[C@@H]1n1ccc(N)nc1=O	96 µM	–	> 1000 µM
